This note sets out measurements from patent US20030073862A1, “Compounds” (priority 2001, published 2003).

Molecules are shown by their SMILES.

Usually melting point stands for the temperature, or range, at which the solid turns liquid.

Data set [1] concerns the target human PPARγ LBD (Homo sapiens, UniProt P37231). The following applies: FIG. 1.

human PPARγ LBD, sequence (P37231 238-503 limits assumed): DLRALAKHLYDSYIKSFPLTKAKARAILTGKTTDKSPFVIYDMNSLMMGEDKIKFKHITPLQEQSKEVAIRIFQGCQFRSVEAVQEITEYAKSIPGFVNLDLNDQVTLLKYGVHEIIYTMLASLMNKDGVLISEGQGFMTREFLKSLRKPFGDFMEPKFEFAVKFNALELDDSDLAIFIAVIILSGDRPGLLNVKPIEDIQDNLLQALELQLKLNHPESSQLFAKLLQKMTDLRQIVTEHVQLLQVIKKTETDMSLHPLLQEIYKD

`O=C(Nc1ccc(OCc2cccs2)cc1C(=O)[O-])c1ccc(Cl)cc1Cl.[Li+]` [Example 1, Lithium 2-[(2,4-dichlorobenzoyl)amino]-5-(2-thienylmethoxy)benzoate] displayed a melting point of 165 to 168 °C. The “location of the compound in the structure of the human PPARγ LBD complex” value in data set [1] is listed as “located in the ligand binding pocket of human PPARγ”.
